Reference: paper PMC10708113, “Comparative Study of Essential Oils from Different Organs of Syzygium cumini (Pamposia) Based on GC/MS Chemical Profiling and In Vitro Antiaging Activity” (Molecules, 2023)
In brackets after ≈: the same amount, converted by molar mass.

Biological target: T1, collagenase
T1 construct: gene colG
Experiment: fluorometric collagenase inhibitor screening kit
Assay type: biochemical
Conditions: 15 min preincubation at 25 °C; kinetic read 60 min at 37 °C; ex 490 / em 520 nm

SMILES: Cc1cnc(NC(=O)C2=C(O)c3ccccc3S(=O)(=O)N2C)s1 [Meloxicam]
- IC50: 38.48 µg/mL (≈ 110 µM)
